System: subjects with moderate-to-severe plaque psoriasis
Experiment: Safety, adverse events, Example 2 through Week 56
Type: in vivo, human
Settings: 50 mg QD
Text: The LTE safety analysis was based on randomized participants in Example who entered the present long-term extension study and received at least one dose of study intervention (including a partial dose) during the study period.

CC(=O)NCCCC[C@@H]1NC(=O)[C@H](Cc2c[nH]c3c(C)cccc23)NC(=O)[C@H]([C@@H](C)O)NC(=O)[C@H](CC(N)=O)NC(=O)[C@@H](NC(C)=O)C(C)(C)SSC(C)(C)[C@@H](C(=O)N[C@@H](Cc2ccc(OCCN)cc2)C(=O)N[C@@H](Cc2ccc3ccccc3c2)C(=O)NC2(C(=O)N[C@@H](CCC(=O)O)C(=O)N[C@@H](CC(N)=O)C(=O)N[C@@H](Cc3cccnc3)C(=O)N(C)CC(N)=O)CCOCC2)NC1=O [IL-23 receptor antagonist peptide, Ac-[Pen]*-N-T-[W(7-Me)]-[Lys(Ac)]-[Pen]*-Phe[4-(2-aminoethoxy)]-[2-Nal]-[THP]-E-N-[3-Pal]-Sarc-NH2 (*[Pen]-[Pen]* formdisulfidebond)]
Subjects with AE leading to discontinuation: Insomnia (Week 16-56): 0
Subjects with AE leading to discontinuation: Investigations (Week 16-56): 0
Subjects with AE leading to discontinuation: Nervous system disorders (Week 16-56): 0
Subjects with AE leading to discontinuation: Proctalgia (Week 16-56): 0
Subjects with AE leading to discontinuation: Psoriasis (Week 16-56): 0
Subjects with AE leading to discontinuation: Psychiatric disorders (Week 16-56): 0
Subjects with AE leading to discontinuation: Skin and subcutaneous tissue disorders (Week 16-56): 0
Subjects with AE leading to discontinuation: Vertigo (Week 16-56): 0
Subjects with AE leading to discontinuation: Vomiting (Week 16-56): 0
Subjects with COVID-19 associated AE of interest: SARS-CoV-2 test positive (Week 16-56): 0
Subjects with treatment-emergent AE: Headache (Week 16-56): 0
Subjects with treatment-emergent AE: Meniscus injury (Week 16-56): 0
Subjects with treatment-emergent AE: Nervous system disorders (Week 16-56): 0
Subjects with treatment-emergent AE: Vomiting (Week 16-56): 0
Subjects with treatment-emergent serious AE: Cerebrovascular accident (Week 16-56): 0
Subjects with treatment-emergent serious AE: Diverticulitis (Week 16-56): 0
Subjects with treatment-emergent serious AE: Infections and infestations (Week 16-56): 0
Subjects with treatment-emergent serious AE: Injury, poisoning and procedural complications (Week 16-56): 0
Subjects with treatment-emergent serious AE: Intervertebral disc protrusion (Week 16-56): 0
Subjects with treatment-emergent serious AE: Ligament injury (Week 16-56): 0
Subjects with treatment-emergent serious AE: Neoplasms benign, malignant and unspecified (incl cysts and polyps) (Week 16-56): 0
Subjects with treatment-emergent serious AE: Nervous system disorders (Week 16-56): 0
Subjects with treatment-emergent serious AE: Respiratory, thoracic and mediastinal disorders (Week 16-56): 0
Subjects with treatment-emergent serious AE: Tonsillar hypertrophy (Week 16-56): 0
Subjects with treatment-emergent serious AE: Uterine leiomyoma (Week 16-56): 0
Subjects with treatment-emergent serious AE: Ventricular dysfunction (Week 16-56): 0
Acrochordon: number of subjects (through Week 56): 0
Actinic keratosis: % of subjects (through Week 56): (2.3%)
Actinic keratosis: number of subjects (through Week 56): 1
Alopecia: number of subjects (through Week 56): 0
Asthenia: number of subjects (through Week 56): 0
Asthma: number of subjects (through Week 56): 0
Atrioventricular block first degree: number of subjects (through Week 56): 0
Basal cell carcinoma: % of subjects (through Week 56): (2.3%)
Basal cell carcinoma: number of subjects (through Week 56): 1
Blood and lymphatic system disorders: % of subjects (through Week 56): (7.0%)
Blood and lymphatic system disorders: number of subjects (through Week 56): 3
Bronchitis chronic: number of subjects (through Week 56): 0
Bundle branch block right: number of subjects (through Week 56): 0
Cardiac disorders: % of subjects (through Week 56): (2.3%)
Cardiac disorders: number of subjects (through Week 56): 1
Chills: number of subjects (through Week 56): 0
Cholelithiasis: number of subjects (through Week 56): 0
Chronic obstructive pulmonary disease: number of subjects (through Week 56): 0
Coronary artery disease: % of subjects (through Week 56): (2.3%)
Coronary artery disease: number of subjects (through Week 56): 1
Cough: % of subjects (through Week 56): (4.7%)
Cough: number of subjects (through Week 56): 2
Decreased appetite: number of subjects (through Week 56): 0
Depression: number of subjects (through Week 56): 0
Dermal cyst: number of subjects (through Week 56): 0
Dermatitis acneiform: number of subjects (through Week 56): 0
Dermatitis contact: % of subjects (through Week 56): (2.3%)
Dermatitis contact: number of subjects (through Week 56): 1
Diabetes mellitus: number of subjects (through Week 56): 0
Diffuse alopecia: number of subjects (through Week 56): 0
Dysuria: number of subjects (through Week 56): 0
Ear and labyrinth disorders: number of subjects (through Week 56): 0
Endocrine disorders: number of subjects (through Week 56): 0
Eye disorders: number of subjects (through Week 56): 0
Eyelid skin dryness: number of subjects (through Week 56): 0
Fatigue: % of subjects (through Week 56): (2.3%)
Fatigue: number of subjects (through Week 56): 1
General disorders and administration site conditions: % of subjects (through Week 56): (7.0%)
General disorders and administration site conditions: number of subjects (through Week 56): 3
Goiter: number of subjects (through Week 56): 0
Haemochromatosis: number of subjects (through Week 56): 0
Hand dermatitis: number of subjects (through Week 56): 0
Hematuria: % of subjects (through Week 56): (2.3%)
Hematuria: number of subjects (through Week 56): 1
Hepatobiliary disorders: number of subjects (through Week 56): 0
Hypercholesterolemia: number of subjects (through Week 56): 0
Hyperglycemia: % of subjects (through Week 56): (2.3%)
Hyperglycemia: number of subjects (through Week 56): 1
Hyperlipidemia: number of subjects (through Week 56): 0
Hypertension: % of subjects (through Week 56): (2.3%)
Hypertension: number of subjects (through Week 56): 1
Hypertransaminasemia: number of subjects (through Week 56): 0
Hypertriglyceridemia: number of subjects (through Week 56): 0
Hypoacusis: number of subjects (through Week 56): 0
Immune system disorders: % of subjects (through Week 56): (2.3%)
Immune system disorders: number of subjects (through Week 56): 1
Influenza like illness: number of subjects (through Week 56): 0
Insomnia: number of subjects (through Week 56): 0
Intertrigo: number of subjects (through Week 56): 0
Ketonuria: number of subjects (through Week 56): 0
Leukocyturia: number of subjects (through Week 56): 0
Leukopenia: % of subjects (through Week 56): (2.3%)
Leukopenia: number of subjects (through Week 56): 1
Libido decreased: number of subjects (through Week 56): 0
Liver disorder: number of subjects (through Week 56): 0
Lymphopenia: % of subjects (through Week 56): (4.7%)
Lymphopenia: number of subjects (through Week 56): 2
Menopause: % of subjects (through Week 56): (2.3%)
Menopause: number of subjects (through Week 56): 1
Metabolism and nutrition disorders: % of subjects (through Week 56): (2.3%)
Metabolism and nutrition disorders: number of subjects (through Week 56): 1
Neoplasms benign, malignant and unspecified (incl cysts and polyps): % of subjects (through Week 56): (4.7%)
Neoplasms benign, malignant and unspecified (incl cysts and polyps): number of subjects (through Week 56): 2
Nephrolithiasis: number of subjects (through Week 56): 0
Neutropenia: % of subjects (through Week 56): (4.7%)
Neutropenia: number of subjects (through Week 56): 2
Night sweats: % of subjects (through Week 56): (2.3%)
Night sweats: number of subjects (through Week 56): 1
Non-cardiac chest pain: % of subjects (through Week 56): (2.3%)
Non-cardiac chest pain: number of subjects (through Week 56): 1
Ocular cyst: number of subjects (through Week 56): 0
Oedema peripheral: % of subjects (through Week 56): (2.3%)
Oedema peripheral: number of subjects (through Week 56): 1
Oropharyngeal pain: number of subjects (through Week 56): 0
Procedural pain: number of subjects (through Week 56): 0
Productive cough: number of subjects (through Week 56): 0
Proteinuria: number of subjects (through Week 56): 0
Pruritus: % of subjects (through Week 56): (2.3%)
Pruritus: number of subjects (through Week 56): 1
Psoriasis: number of subjects (through Week 56): 0
Psychiatric disorders: number of subjects (through Week 56): 0
Pyrexia: number of subjects (through Week 56): 0
Rash pruritic: number of subjects (through Week 56): 0
Renal and urinary disorders: % of subjects (through Week 56): (2.3%)
Renal and urinary disorders: number of subjects (through Week 56): 1

Source: US20260232767A1, “INTERLEUKIN-23 RECEPTOR ANTAGONIST PEPTIDES FOR USE IN THE TREATMENT OF PSORIASIS” (Janssen Pharmaceutica NV, priority 2023, published 2026)
